Results published in PubChem BioAssay (NCI).
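Five compound concentrations were applied to cells in 96-well plates for 48 hours; endpoints were derived by simple linear interpolation of the resulting dose-response curve. TGI: concentration producing complete growth inhibition.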

Assays:
Test in all cases: NCI anticancer screen, dose series, 48 h
[1] = system: RXF 393 renal
[2] = system: SK-MEL-2 melanoma
[3] = system: LOX IMVI melanoma
[4] = system: NCI-H226 lung
[5] = system: HCT-116 colon
[6] = system: MDA-MB-231 breast
[7] = system: HS 578T breast
[8] = system: CCRF-CEM leukemia
[9] = system: SF-268 CNS
[10] = system: NCI-H23 lung
[11] = system: MOLT-4 leukemia
[12] = system: MDA-N
[13] = system: T-47D breast
[14] = system: MDA-MB-435
[15] = system: PC-3 prostate
[16] = system: SR leukemia
[17] = system: SNB-19 CNS
[18] = system: NCI/ADR-RES ovarian
[19] = system: OVCAR-4 ovarian
[20] = system: OVCAR-3 ovarian
[21] = system: HL-60(TB) leukemia
[22] = system: UACC-257 melanoma
[23] = system: SF-295 CNS
[24] = system: SF-539 CNS
[25] = system: SW-620 colon
[26] = system: ACHN renal
[27] = system: UO-31 renal
[28] = system: U251 CNS
[29] = system: HOP-62 NSCLC
[30] = system: 786-0 renal
[31] = system: NCI-H460 lung
[32] = system: CAKI-1 renal
[33] = system: UACC-62 melanoma
[34] = system: HCC-2998 colon
[35] = system: KM12 colon
[36] = system: SK-MEL-5 melanoma
[37] = system: DU-145 prostate
[38] = system: HT29 colon
[39] = system: TK-10 renal
[40] = system: SK-MEL-28 melanoma
[41] = system: OVCAR-5 ovarian
[42] = system: COLO 205 colon
[43] = system: K-562 leukemia
[44] = system: SNB-75 CNS
[45] = system: A549 NSCLC
[46] = system: MCF7 breast
[47] = system: M14 melanoma
[48] = system: SN12C renal
[49] = system: SK-OV-3 ovarian
[50] = system: A498 renal
[51] = system: HOP-92 NSCLC
[52] = system: OVCAR-8 ovarian
[53] = system: RPMI-8226 leukemia
[54] = system: NCI-H522 lung
[55] = system: EKVX NSCLC
[56] = system: IGROV1 ovarian
[57] = system: HCT-15 colon
[58] = system: MALME-3M melanoma

NC(=O)C(=CNC(=S)Nc1cccc(C(F)(F)F)c1)C(N)=O
TGI [1]: > 100 µM
TGI [2]: > 100 µM
TGI [3]: > 100 µM
TGI [4]: > 100 µM
TGI [5]: > 100 µM
TGI [6]: > 100 µM
TGI [7]: > 100 µM
TGI [8]: > 100 µM
TGI [9]: > 100 µM
TGI [10]: > 100 µM
TGI [11]: > 100 µM
TGI [12]: > 100 µM
TGI [13]: > 100 µM
TGI [14]: > 100 µM
TGI [15]: > 100 µM
TGI [16]: > 100 µM
TGI [17]: > 100 µM
TGI [18]: > 100 µM
TGI [19]: > 100 µM
TGI [20]: > 100 µM
TGI [21]: > 100 µM
TGI [22]: > 100 µM
TGI [23]: > 100 µM
TGI [24]: > 100 µM
TGI [25]: > 100 µM
TGI [26]: > 100 µM
TGI [27]: > 100 µM
TGI [28]: > 100 µM
TGI [29]: > 100 µM
TGI [30]: > 100 µM
TGI [31]: > 100 µM
TGI [32]: > 100 µM
TGI [33]: > 100 µM
TGI [34]: > 100 µM
TGI [35]: > 100 µM
TGI [36]: > 100 µM
TGI [37]: > 100 µM
TGI [38]: > 100 µM
TGI [39]: > 100 µM
TGI [40]: > 100 µM
TGI [41]: > 100 µM
TGI [42]: > 100 µM
TGI [43]: > 100 µM
TGI [44]: > 100 µM
TGI [45]: > 100 µM
TGI [46]: > 100 µM
TGI [47]: > 100 µM
TGI [48]: > 100 µM
TGI [49]: > 100 µM
TGI [50]: > 100 µM
TGI [51]: > 100 µM
TGI [52]: > 100 µM
TGI [53]: > 100 µM

O=C1CCCc2ccc3c(c21)CC1(Cc2ccccc2C1)C3
TGI [1]: > 100 µM
TGI [2]: > 100 µM
TGI [54]: 74.3 µM
TGI [55]: > 100 µM
TGI [3]: > 100 µM
TGI [4]: 67.3 µM
TGI [5]: 55.7 µM
TGI [6]: > 100 µM
TGI [7]: > 100 µM
TGI [10]: > 100 µM
TGI [56]: > 100 µM
TGI [12]: 67.2 µM
TGI [13]: > 100 µM
TGI [14]: > 100 µM
TGI [15]: > 100 µM
TGI [18]: > 100 µM
TGI [19]: 98.8 µM
TGI [20]: 98.6 µM
TGI [22]: 58 µM
TGI [23]: > 100 µM
TGI [24]: > 100 µM
TGI [26]: 68.9 µM
TGI [27]: > 100 µM
TGI [28]: > 100 µM
TGI [29]: > 100 µM
TGI [30]: > 100 µM
TGI [33]: > 100 µM
TGI [57]: > 100 µM
TGI [34]: > 100 µM
TGI [35]: > 100 µM
TGI [36]: 33.4 µM
TGI [38]: 45 µM
TGI [39]: > 100 µM
TGI [41]: > 100 µM
TGI [42]: 52.3 µM
TGI [43]: 30 µM
TGI [44]: 9.64 µM
TGI [45]: > 100 µM
TGI [46]: > 100 µM
TGI [47]: > 100 µM
TGI [48]: > 100 µM
TGI [49]: > 100 µM
TGI [50]: > 100 µM
TGI [51]: 50.6 µM
TGI [52]: > 100 µM
TGI [53]: 48.1 µM
TGI [58]: > 100 µM
